These results are taken from US20260276643A1, “METHODS FOR PREDICTING AND IMPROVING THERAPEUTIC EFFICACY OF CANCER TREATMENTS AND METHODS FOR CANCER PROGNOSIS” (Università degli studi di Verona, priority 2023, published 2026).

Like-named read-outs stand apart in the source and are kept apart here.

The subject of assay [1] is CLDN18.2 expression in cancer cells. As to conditions: WO2013/174510; Tureci 2019; cited from earlier work.
The subject of assay [2] is CLDN18 expression in DANG cells. The assay can be described thus: CLDN18 exogenous regulation in vitro: CLDN18 staining of treated DANG cells. The format is cell-based, human.

With `O=c1[nH]cc(F)c(=O)[nH]1` [5-fluorouracil, 5-fluoro-1H-pyrimidine-2,4-dione], the “CLDN18.2 expression levels in cancer cells” value (“CLDN18.2 expression levels” below) in assay [1] was “upregulate existing CLDN18.2 expression levels in cancer cells”. Consider `Nc1ccn([C@@H]2O[C@H](CO)[C@@H](O)C2(F)F)c(=O)n1` [Gemcitabine, 4-amino-1-(2-deoxy-2,2-difluoro-β-D-erythro-pentofuranosyl)pyrimidin-2(1H)-one], for which the “CLDN18.2 expression levels” value in assay [1] is “upregulate existing CLDN18.2 expression levels in cancer cells”. The “CLDN18 expression (mean fluorescence intensity, fold change on untreated)” value in assay [2] (DANG cells, 48 hours treatment, FIG. 7) is “induced CLDN18 expression in DANG cells”. On to `CCCCCCCCCCCCCC(=O)O[C@@H]1[C@@H](C)[C@@]2(O)[C@@H](C=C(CO)C[C@]3(O)C(=O)C(C)=C[C@@H]23)[C@@H]2C(C)(C)[C@]12OC(C)=O` [PMA, Phorbol 12-myristate 13-acetate], for which, in assay [2], the “CLDN18 expression (mean fluorescence intensity, fold change on untreated)” value is recorded as “induced CLDN18 expression in DANG cells” and the “CLDN18 expression (percentage of CLDN18+ cells)” value is “induced CLDN18 expression in DANG cells”.

`NC(=O)Nc1sc(-c2ccc(F)cc2)cc1C(N)=O` [TPCA-1]: the “CLDN18 expression (percentage of CLDN18+ cells)” value in assay [2] was “induced CLDN18 expression in DANG cells”. For the molecule `O=C1[O][Pt]2([NH][C@@H]3CCCC[C@H]3[NH]2)[O]C1=O` [oxaliplatin, [(1R,2R)-cyclohexane-1,2-diamine](ethanedioato-O,O′)platinum(II)], the “CLDN18.2 expression levels” value in assay [1] is recorded as “upregulate existing CLDN18.2 expression levels in cancer cells”. On to Verteporfin, for which the “CLDN18 expression (percentage of CLDN18+ cells)” value in assay [2] (DANG cells, extended experiment, FIG. 11) is given as “induced CLDN18 expression in DANG cells”.
